Common to all, as to format: in vivo
Assay [1] relates to Spodoptera littoralis (Egyptian Cotton Leaf Worm). The experiment in a line: Spodoptera littoralis cotton leaf disc spray test. To be noted: foliar, 72 h, application rate 200 ppm, L1 larvae, 3 days after infestation, read-out: control (at least one of mortality, anti-feedant effect, growth inhibition). Here is the method: Spodoptera littoralis (Egyptian Cotton Leaf Worm)
Cotton leaf discs were placed on agar in 24-well microtiter plates and sprayed with aqueous test solutions prepared from 10,000 ppm DMSO stock solutions. After drying, the leaf discs were infested with five L1 larvae. The samples were assessed for mortality, anti-feedant effect, and growth inhibition in comparison to untreated samples 3 days after infestation. Control of Spodoptera littoralis by a test sample is when at least one of mortality, anti-feedant effect, and growth inhibition is higher than the untreated sample.

The test system of assay [2] is Diabrotica Balteata (Corn Root Worm). As to the kind of experiment: whole plant or invertebrate. To be noted: 96 h, application rate 200 ppm, L2 larvae, 4 days after infestation, read-out: effect in at least one of the two categories (mortality or growth inhibition). Here is the method:
Example B3: Diabrotica Balteata (Corn Root Worm)
Maize sprouts, placed on an agar layer in 24-well microtiter plates were treated with aqueous test solutions prepared from 10,000 ppm DMSO stock solutions by spraying. After drying, the plates were infested with L2 larvae (6 to 10 per well). The samples were assessed for mortality and growth inhibition in comparison to untreated samples 4 days after infestation.

In assay [3] the test system is Plutella xylostella (Diamond Back Moth). As to the kind of experiment: whole plant or invertebrate. To be noted: 120 h, application rate 200 ppm, L2 larvae, 5 days after infestation, read-out: effect in at least one of the two categories (mortality or growth inhibition). Here is the method:
Example B2: Plutella xylostella (Diamond Back Moth)
24-well microtiter plates with artificial diet were treated with aqueous test solutions prepared from 10,000 ppm DMSO stock solutions by pipetting. After drying, the plates were infested with L2 larvae (10 to 15 per well). The samples were assessed for mortality and growth inhibition in comparison to untreated samples 5 days after infestation.

SMILES strings stand for the structures.

For `Fc1ccccc1-n1nc(-c2ccc(Cl)c(Cl)c2)nc1CN1CCC(c2ncccn2)CC1` [Example 1.20], the percent control (mortality, anti-feedant effect or growth inhibition) at 200 ppm in assay [1] was at least 80%. In addition, the percent effect (mortality or growth inhibition) at 200 ppm in assay [2] and in assay [3] was at least 80% in each case.
On to `Fc1cccc(-n2nc(-c3ccc(Cl)cc3)nc2CN2CCC(c3ncccn3)CC2)c1` [Example 1.80], for which the percent control (mortality, anti-feedant effect or growth inhibition) at 200 ppm in assay [1] is at least 80%. Further, the percent effect (mortality or growth inhibition) at 200 ppm in assay [2] and in assay [3] was at least 80% each time.
`COC[C@@H]1CCCN1Cc1nc(-c2ccc(Cl)cc2)nn1-c1ccccc1F` [Example 5.28]: the percent control (mortality, anti-feedant effect or growth inhibition) at 200 ppm in assay [1] was at least 80%. The percent effect (mortality or growth inhibition) at 200 ppm in assay [2] and in assay [3] was at least 80% each time.
On to `CC1CCN(Cc2nc(-c3ccc(Cl)cc3)nn2-c2ccccc2F)CC1` [Example 1.46], for which, in assay [1], the percent control (mortality, anti-feedant effect or growth inhibition) at 200 ppm was at least 80%. Moreover, the percent effect (mortality or growth inhibition) at 200 ppm in assay [2] and in assay [3] was at least 80% each time.
In the case of `Clc1ccc(-c2nc(CN3CCC(c4ncccn4)CC3)n(-c3ccccn3)n2)cc1` [Example 1.78], the percent control (mortality, anti-feedant effect or growth inhibition) at 200 ppm in assay [1] was at least 80%. Besides, the percent effect (mortality or growth inhibition) at 200 ppm in assay [2] and in assay [3] was at least 80% each time.
In the case of `Clc1ccc(-c2nc(CN3CCC(c4ncccn4)CC3)n(Cc3ccccc3)n2)cc1` [Example 1.56], the percent control (mortality, anti-feedant effect or growth inhibition) at 200 ppm in assay [1] was at least 80%. Further, the percent effect (mortality or growth inhibition) at 200 ppm in assay [2] and in assay [3] was at least 80% each time.
`Cc1nccc(C2CCN(Cc3nc(-c4ccc(Cl)cc4)nn3-c3ccccc3F)CC2)n1` [Example 1.110]: in assay [1], the percent control (mortality, anti-feedant effect or growth inhibition) at 200 ppm is at least 80%. In addition, the percent effect (mortality or growth inhibition) at 200 ppm in assay [2] and in assay [3] was at least 80% in each case.
Turning to `Clc1ccc(-c2nc(CN3CCC(c4ncccn4)CC3)n(-c3c(Cl)cc(Cl)cc3Cl)n2)cc1` [Example 1.77], the percent control (mortality, anti-feedant effect or growth inhibition) at 200 ppm in assay [1] is at least 80%. The percent effect (mortality or growth inhibition) at 200 ppm in assay [2] and in assay [3] was at least 80% throughout.
Regarding `Fc1ccccc1-n1nc(-c2cccc(C(F)(F)F)c2)nc1CN1CCC(c2ncccn2)CC1` [Example 1.38], in assay [1], the percent control (mortality, anti-feedant effect or growth inhibition) at 200 ppm is at least 80%. Moreover, the percent effect (mortality or growth inhibition) at 200 ppm in assay [2] and in assay [3] was at least 80% each time.
`COc1ccccc1-n1nc(-c2ccc(Cl)cc2)nc1CN1CCC(c2ncccn2)CC1` [Example 1.70]: in assay [1], the percent control (mortality, anti-feedant effect or growth inhibition) at 200 ppm is at least 80%. For the same compound, the percent effect (mortality or growth inhibition) at 200 ppm in assay [2] and in assay [3] was at least 80% in each case.
As for `Fc1ccccc1-n1nc(-c2ccc(C(F)(F)F)cc2)nc1CN1CCC(c2ncccn2)CC1` [Example 1.26], the percent control (mortality, anti-feedant effect or growth inhibition) at 200 ppm in assay [1] is at least 80%. In addition, the percent effect (mortality or growth inhibition) at 200 ppm in assay [2] and in assay [3] was at least 80% each time.
Turning to `Fc1ccc(-n2nc(-c3ccc(Cl)cc3)nc2CN2CCC(c3ncccn3)CC2)c(F)c1` [Example 1.30], the percent control (mortality, anti-feedant effect or growth inhibition) at 200 ppm in assay [1] was at least 80%. For the same compound, the percent effect (mortality or growth inhibition) at 200 ppm in assay [2] and in assay [3] was at least 80% in each case.
For `Cc1ccccc1-n1nc(-c2ccc(Cl)cc2)nc1CN1CCC(c2ncccn2)CC1` [Example 1.62], the percent control (mortality, anti-feedant effect or growth inhibition) at 200 ppm in assay [1] is at least 80%. In addition, the percent effect (mortality or growth inhibition) at 200 ppm in assay [2] and in assay [3] was at least 80% in each case.
As to `Cc1cc(Cl)ccc1-n1nc(-c2ccc(Cl)cc2)nc1CN1CCC(c2ncccn2)CC1` [Example 1.85], the percent control (mortality, anti-feedant effect or growth inhibition) at 200 ppm in assay [1] was at least 80%. Further, the percent effect (mortality or growth inhibition) at 200 ppm in assay [2] and in assay [3] was at least 80% in each case.
With `Fc1ccccc1-n1nc(-c2ccc(Cl)cc2)nc1CN1CCC(c2ncccn2)CC1` [Example 1.1, 2-[1-[[5-(4-chlorophenyl)-2-(2-fluorophenyl)-1,2,4-triazol-3-yl]methyl]-4-piperidyl]pyrimidine], the percent control (mortality, anti-feedant effect or growth inhibition) at 200 ppm in assay [1] is at least 80%. Besides, the percent effect (mortality or growth inhibition) at 200 ppm in assay [2] and in assay [3] was at least 80% throughout.
As to `Fc1ccccc1-n1nc(-c2ccc(Cl)cc2)nc1CN1CCC(c2ncccc2Cl)CC1` [Example 1.126], in assay [1], the percent control (mortality, anti-feedant effect or growth inhibition) at 200 ppm was at least 80%. Further, the percent effect (mortality or growth inhibition) at 200 ppm in assay [2] and in assay [3] was at least 80% each time.
As to `Clc1ccc(-c2nc(CN3CCC(c4ncccn4)CC3)n(-c3ccccc3)n2)cc1` [Example 1.61], the percent control (mortality, anti-feedant effect or growth inhibition) at 200 ppm in assay [1] is at least 80%. Further, the percent effect (mortality or growth inhibition) at 200 ppm in assay [2] and in assay [3] was at least 80% each time.
Consider `Fc1ccccc1-n1nc(-c2ccc(Cl)cc2)nc1CN1CCC(c2ccccc2)CC1` [Example 1.43], for which, in assay [1], the percent control (mortality, anti-feedant effect or growth inhibition) at 200 ppm is at least 80%. Besides, the percent effect (mortality or growth inhibition) at 200 ppm in assay [2] and in assay [3] was at least 80% in each case.
In the case of `Clc1ccc(-c2nc(CN3CCC(c4ncccn4)CC3)n(-c3ccc(Cl)cc3)n2)cc1` [Example 1.66], in assay [1], the percent control (mortality, anti-feedant effect or growth inhibition) at 200 ppm was at least 80%. Further, the percent effect (mortality or growth inhibition) at 200 ppm in assay [2] and in assay [3] was at least 80% each time.
As to `Clc1ccc(-c2nc(CN3CCC(c4ncccn4)CC3)n(-c3cccc(Cl)c3Cl)n2)cc1` [Example 1.55], in assay [1], the percent control (mortality, anti-feedant effect or growth inhibition) at 200 ppm is at least 80%. Further, the percent effect (mortality or growth inhibition) at 200 ppm in assay [2] and in assay [3] was at least 80% in each case.
On to `Fc1cccc(F)c1-n1nc(-c2ccc(C(F)(F)F)cc2)nc1CN1CCC(c2ncccn2)CC1` [Example 1.21], for which the percent control (mortality, anti-feedant effect or growth inhibition) at 200 ppm in assay [1] was at least 80%. The percent effect (mortality or growth inhibition) at 200 ppm in assay [2] and in assay [3] was at least 80% throughout.
Regarding `Fc1ccccc1-n1nc(-c2ccc(Cl)cc2)nc1CN1CCC(c2ncccn2)C1` (centres unmarked) [Example 5.7], the percent effect (mortality or growth inhibition) at 200 ppm in assay [2] and in assay [3] was at least 80% each time.
As for `Clc1ccc(-c2nc(CN3CCC(c4ncccn4)CC3)n(-c3ccccc3Cl)n2)cc1` [Example 1.83], the percent control (mortality, anti-feedant effect or growth inhibition) at 200 ppm in assay [1] was at least 80%. The percent effect (mortality or growth inhibition) at 200 ppm in assay [2] and in assay [3] was at least 80% in each case.
On to `Fc1ccccc1-n1nc(-c2ccc(Cl)cn2)nc1CN1CCC(c2ncccn2)CC1` [Example 1.4], for which, in assay [1], the percent control (mortality, anti-feedant effect or growth inhibition) at 200 ppm was at least 80%. Further, the percent effect (mortality or growth inhibition) at 200 ppm in assay [2] and in assay [3] was at least 80% each time.
Turning to `Fc1ccc(-c2nc(CN3CCC(c4ncccn4)CC3)n(-c3ccc(F)cc3)n2)cc1` [Example 1.29], the percent control (mortality, anti-feedant effect or growth inhibition) at 200 ppm in assay [1] was at least 80%. Further, the percent effect (mortality or growth inhibition) at 200 ppm in assay [2] and in assay [3] was at least 80% each time.
Turning to `CC1(C)CCN(Cc2nc(-c3ccc(Cl)cc3)nn2-c2ccccc2F)CC1` [Example 1.35], in assay [1], the percent control (mortality, anti-feedant effect or growth inhibition) at 200 ppm was at least 80%. Also, the percent effect (mortality or growth inhibition) at 200 ppm in assay [2] and in assay [3] was at least 80% each time.
As to `Fc1ccccc1-n1nc(-c2ccc(Cl)cc2)nc1CN1CCC(c2ccon2)CC1` [Example 1.120], in assay [1], the percent control (mortality, anti-feedant effect or growth inhibition) at 200 ppm was at least 80%. In addition, the percent effect (mortality or growth inhibition) at 200 ppm in assay [2] and in assay [3] was at least 80% in each case.
As for `Clc1ccc(-c2nc(CN3CCC(c4ncccn4)CC3)n(-c3ccc(Br)cc3)n2)cc1` [Example 1.76], the percent control (mortality, anti-feedant effect or growth inhibition) at 200 ppm in assay [1] is at least 80%. Moreover, the percent effect (mortality or growth inhibition) at 200 ppm in assay [2] and in assay [3] was at least 80% each time.
Take `Cc1c(Cl)cccc1-n1nc(-c2ccc(Cl)cc2)nc1CN1CCC(c2ncccn2)CC1` [Example 1.84]: the percent control (mortality, anti-feedant effect or growth inhibition) at 200 ppm in assay [1] was at least 80%. Further, the percent effect (mortality or growth inhibition) at 200 ppm in assay [2] and in assay [3] was at least 80% each time.
As to `Fc1ccc(C2CCN(Cc3nc(-c4ccc(Cl)cc4)nn3-c3ccccc3F)CC2)nc1` [Example 1.122], in assay [1], the percent control (mortality, anti-feedant effect or growth inhibition) at 200 ppm is at least 80%. In addition, the percent effect (mortality or growth inhibition) at 200 ppm in assay [2] and in assay [3] was at least 80% in each case.
